We go through 17 molecules from patent US20210070748A1, “INHIBITORS OF BRUTONS TYROSINE KINASE” (Pharmacyclics LLC, priority 2015, published 2021).

Holding throughout (type): biochemical
In one assay the target is T1, BTK-WT (Homo sapiens, UniProt Q06187).
T1 construct: purified from insect cells as a full-length construct containing an N-terminal 6X-His tag; His6 (N); made in house; host or cells: insect cells (baculovirus Sf21 in Method B)
In words: Btk in vitro inhibitory activity (one of Method A TR-FRET, Method B electrophoretic mobility shift, Method C radiometric filter binding). The conditions noted are these: D-compounds panel data; read-out: IC50 BTK-WT.

For a further assay, the target named is LCK (Homo sapiens, UniProt P06239). In words: Inhibition of a panel of kinases, in vitro HotSpot kinase assay: LCK. The conditions noted are these: D-compounds panel data; 1 μM ATP; read-out: IC50 LCK.
Chain of LCK (P06239 whole entry): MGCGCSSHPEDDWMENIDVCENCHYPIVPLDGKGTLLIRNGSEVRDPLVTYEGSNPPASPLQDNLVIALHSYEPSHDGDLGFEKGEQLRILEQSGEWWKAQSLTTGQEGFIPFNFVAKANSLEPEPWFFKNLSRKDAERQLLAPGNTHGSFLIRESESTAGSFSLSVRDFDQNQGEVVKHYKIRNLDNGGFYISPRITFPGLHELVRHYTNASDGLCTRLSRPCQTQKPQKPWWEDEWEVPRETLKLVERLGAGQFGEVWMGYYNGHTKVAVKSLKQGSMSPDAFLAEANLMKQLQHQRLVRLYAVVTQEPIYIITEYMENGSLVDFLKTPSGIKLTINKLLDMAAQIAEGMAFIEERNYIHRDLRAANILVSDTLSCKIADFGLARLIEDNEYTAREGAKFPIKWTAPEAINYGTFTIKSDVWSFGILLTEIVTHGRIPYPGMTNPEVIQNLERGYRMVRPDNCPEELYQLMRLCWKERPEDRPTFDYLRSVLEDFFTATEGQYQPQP
For the next assay, the target named is T2, ITK (Homo sapiens, UniProt Q08881).
T2 sequence (Q08881 1-620): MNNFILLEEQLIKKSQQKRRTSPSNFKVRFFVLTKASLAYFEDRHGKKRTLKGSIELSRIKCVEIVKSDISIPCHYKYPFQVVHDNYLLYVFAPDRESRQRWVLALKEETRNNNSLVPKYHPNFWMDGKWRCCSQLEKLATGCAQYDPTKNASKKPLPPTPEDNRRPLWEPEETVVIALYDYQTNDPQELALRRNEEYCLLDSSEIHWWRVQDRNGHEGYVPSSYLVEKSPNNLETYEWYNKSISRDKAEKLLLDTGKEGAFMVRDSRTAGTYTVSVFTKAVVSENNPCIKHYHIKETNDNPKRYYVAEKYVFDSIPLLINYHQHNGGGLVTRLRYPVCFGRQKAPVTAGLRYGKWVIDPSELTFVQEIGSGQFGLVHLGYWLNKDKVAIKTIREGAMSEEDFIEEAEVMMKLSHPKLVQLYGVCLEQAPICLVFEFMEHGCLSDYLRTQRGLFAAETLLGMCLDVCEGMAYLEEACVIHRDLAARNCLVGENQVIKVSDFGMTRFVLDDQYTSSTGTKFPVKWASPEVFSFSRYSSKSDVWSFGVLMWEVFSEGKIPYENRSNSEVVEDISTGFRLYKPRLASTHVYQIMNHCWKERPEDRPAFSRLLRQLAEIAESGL
The experiment in a line: Inhibition of a panel of kinases, in vitro HotSpot kinase assay: ITK. The conditions noted are these: D-compounds panel data; 1 μM ATP. The protocol:
(§1) The degree of inhibition of a panel of kinases is determined using the in vitro HotSpot kinase assay (purified enzymes, ^33P-ATP, an appropriate substrate and 1 μM ATP).

For a further assay, the target named is EGFR (Homo sapiens, UniProt P00533). In words: Inhibition of a panel of kinases, in vitro HotSpot kinase assay: EGFR. The conditions noted are these: D-compounds panel data; 1 μM ATP. The protocol:
as §1

Chain of EGFR (P00533 25-1210): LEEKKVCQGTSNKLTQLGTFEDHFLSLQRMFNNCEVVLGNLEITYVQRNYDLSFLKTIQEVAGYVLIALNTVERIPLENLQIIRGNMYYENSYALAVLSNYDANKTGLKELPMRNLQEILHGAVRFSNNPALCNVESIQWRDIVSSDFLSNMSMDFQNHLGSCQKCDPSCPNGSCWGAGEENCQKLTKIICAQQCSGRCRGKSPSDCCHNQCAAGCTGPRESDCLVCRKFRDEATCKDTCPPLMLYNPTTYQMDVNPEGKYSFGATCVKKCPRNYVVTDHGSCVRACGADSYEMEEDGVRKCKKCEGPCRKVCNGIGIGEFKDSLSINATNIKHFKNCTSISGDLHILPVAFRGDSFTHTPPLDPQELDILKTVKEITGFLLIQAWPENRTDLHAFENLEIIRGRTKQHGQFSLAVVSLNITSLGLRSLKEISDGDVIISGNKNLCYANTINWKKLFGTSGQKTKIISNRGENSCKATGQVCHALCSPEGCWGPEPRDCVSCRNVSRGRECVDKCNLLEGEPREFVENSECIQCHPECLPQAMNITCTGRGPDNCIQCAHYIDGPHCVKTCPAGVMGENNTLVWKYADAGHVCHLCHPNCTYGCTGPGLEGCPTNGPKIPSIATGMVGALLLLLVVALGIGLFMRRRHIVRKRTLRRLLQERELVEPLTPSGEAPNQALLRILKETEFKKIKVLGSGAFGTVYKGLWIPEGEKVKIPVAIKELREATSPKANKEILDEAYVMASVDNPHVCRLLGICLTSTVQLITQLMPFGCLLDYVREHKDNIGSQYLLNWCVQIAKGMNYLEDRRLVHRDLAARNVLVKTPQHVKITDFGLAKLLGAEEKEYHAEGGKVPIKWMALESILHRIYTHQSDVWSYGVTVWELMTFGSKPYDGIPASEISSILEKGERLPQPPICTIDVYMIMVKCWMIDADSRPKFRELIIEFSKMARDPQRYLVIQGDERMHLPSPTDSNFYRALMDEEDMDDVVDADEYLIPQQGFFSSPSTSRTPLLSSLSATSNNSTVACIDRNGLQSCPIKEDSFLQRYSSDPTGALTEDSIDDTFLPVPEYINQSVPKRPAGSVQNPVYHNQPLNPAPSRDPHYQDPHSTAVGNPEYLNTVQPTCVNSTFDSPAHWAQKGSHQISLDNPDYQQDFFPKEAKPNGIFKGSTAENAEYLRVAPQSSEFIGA
T1 sequence (Q06187 whole entry): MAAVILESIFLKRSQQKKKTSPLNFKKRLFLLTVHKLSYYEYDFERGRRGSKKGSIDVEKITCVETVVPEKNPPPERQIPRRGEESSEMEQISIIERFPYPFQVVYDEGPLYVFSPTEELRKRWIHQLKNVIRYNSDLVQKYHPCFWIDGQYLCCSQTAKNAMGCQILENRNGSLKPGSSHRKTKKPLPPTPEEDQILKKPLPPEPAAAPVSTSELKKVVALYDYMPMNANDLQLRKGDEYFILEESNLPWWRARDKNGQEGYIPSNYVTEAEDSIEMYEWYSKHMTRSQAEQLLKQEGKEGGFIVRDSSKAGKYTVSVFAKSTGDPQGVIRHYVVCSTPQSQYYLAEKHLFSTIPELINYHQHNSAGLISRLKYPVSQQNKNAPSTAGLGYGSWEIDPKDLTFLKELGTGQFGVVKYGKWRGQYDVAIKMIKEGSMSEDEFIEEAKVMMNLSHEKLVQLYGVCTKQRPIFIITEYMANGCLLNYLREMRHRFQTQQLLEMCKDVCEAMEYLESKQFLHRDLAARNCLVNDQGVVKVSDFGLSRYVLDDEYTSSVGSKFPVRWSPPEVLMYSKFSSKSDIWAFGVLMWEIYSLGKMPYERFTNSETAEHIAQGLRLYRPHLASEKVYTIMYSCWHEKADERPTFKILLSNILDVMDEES

What is called IC50 is the point on the concentration scale where inhibition reaches its midpoint. With `Cc1ccc(-c2cnc([C@H]3CCCN(c4cnc(C(N)=O)c(Nc5cc(C)ns5)n4)C3)[nH]2)cc1` [Example D-136, 3-[(3-methyl-1,2-thiazol-5-yl)amino]-5-[(3S)-3-[5-(4-methylphenyl)-1H-imidazol-2-yl]piperidin-1-yl]pyrazine-2-carboxamide], the IC50 was 10 to 100 nM at BTK-WT, 100 to 1000 nM on LCK, 1000 to 10000 nM at ITK and 100 to 1000 nM on EGFR.
Turning to `Cc1cc(Nc2nc(N3CCC[C@@H](NC(=O)c4ccc(C(C)(C)O)cc4)[C@H]3C)cnc2C(N)=O)sn1` [Example D-159, 5-[(2R,3R)-3-[4-(2-hydroxypropan-2-yl)benzamido]-2-methylpiperidin-1-yl]-3-[(3-methyl-1,2-thiazol-5-yl)amino]pyrazine-2-carboxamide], the IC50 on BTK-WT is no more than 10 nM; at LCK, 10 to 100 nM; against ITK, 100 to 1000 nM; against EGFR, 100 to 1000 nM.
In the case of `C[C@@H]1[C@H](NC(=O)N(C)C)CCCN1c1cnc(C(N)=O)c(Nc2cc(C3CCOCC3)ns2)n1` [Example D-162, 5-[(2R,3R)-3-[(dimethylcarbamoyl)amino]-2-methylpiperidin-1-yl]-3-{[3-(oxan-4-yl)-1,2-thiazol-5-yl]amino}pyrazine-2-carboxamide], the IC50 at BTK-WT was no more than 10 nM; at LCK it was 10 to 100 nM; at ITK, 100 to 1000 nM; against EGFR, 100 to 1000 nM.
As to `C[C@@H]1[C@H](NC(=O)c2ccc(C(C)(C)O)c(F)c2)CCCN1c1cnc(C(N)=O)c(Nc2cnn(C)c2)n1` [Example D-160, 5-[(2R,3R)-3-[3-fluoro-4-(2-hydroxypropan-2-yl)benzamido]-2-methylpiperidin-1-yl]-3-[(1-methyl-1H-pyrazol-4-yl)amino]pyrazine-2-carboxamide], the 50% inhibitory concentration (IC50) on BTK-WT was no more than 10 nM; on LCK it was 10 to 100 nM; at ITK it was 100 to 1000 nM; against EGFR, 100 to 1000 nM.
For `CC(=O)NC(C)(C)c1ccc(C(=O)N[C@@H]2CCCN(c3cnc(C(N)=O)c(Nc4cnn(C)c4)n3)[C@@H]2C)cc1` [Example D-107, 5-[(2R,3R)-3-[4-(2-acetamidopropan-2-yl)benzamido]-2-methylpiperidin-1-yl]-3-[(1-methyl-1H-pyrazol-4-yl)amino]pyrazine-2-carboxamide], the half-inhibitory concentration (IC50) on BTK-WT is no more than 10 nM; on LCK, 100 to 1000 nM; at ITK, 100 to 1000 nM; at EGFR, 1000 to 10000 nM.
In the case of `C[C@H]1CC[C@@H](NC(=O)c2ccc(C3CC3)cc2)CN1c1cnc(C(N)=O)c(Nc2ccc(N3CCN(C)CC3)c(F)c2)n1` [Example D-150, 5-[(2S,5R)-5-(4-cyclopropylbenzamido)-2-methylpiperidin-1-yl]-3-{[3-fluoro-4-(4-methylpiperazin-1-yl)phenyl]amino}pyrazine-2-carboxamide], the concentration for half-maximal inhibition (IC50) on BTK-WT is no more than 10 nM; at LCK, 10 to 100 nM; at ITK, 100 to 1000 nM; at EGFR, 100 to 1000 nM.
Turning to `C[C@@H]1[C@H](NC(=O)c2ccc(C3CC3)cc2F)CCCN1c1cnc(C(N)=O)c(Nc2ccc(CN3CCN(C)CC3)cc2)n1` [Example D-113, 5-[(2R,3R)-3-(4-cyclopropyl-2-fluorobenzamido)-2-methylpiperidin-1-yl]-3-({4-[(4-methylpiperazin-1-yl)methyl]phenyl}amino)pyrazine-2-carboxamide], the 50% inhibitory concentration (IC50) on BTK-WT was no more than 10 nM; on LCK, 10 to 100 nM; against ITK, 100 to 1000 nM; on EGFR, 100 to 1000 nM.
Regarding `C[C@@H]1[C@H](NC(=O)N(C)C)CCCN1c1cnc(C(N)=O)c(Nc2cnn(C)c2)n1` [Example D-128, 5-[(2R,3R)-3-[(dimethylcarbamoyl)amino]-2-methylpiperidin-1-yl]-3-[(1-methyl-1H-pyrazol-4-yl)amino]pyrazine-2-carboxamide], the IC50 was no more than 10 nM at BTK-WT, 100 to 1000 nM at LCK, 100 to 1000 nM against ITK and 1000 to 10000 nM against EGFR.
As for `C[C@@H]1[C@H](NC(=O)N(C)C)CCCN1c1cnc(C(N)=O)c(Nc2ccc(CN3CCN(C)CC3)cc2)c1` [Example D-120, 5-[(2R,3R)-3-[(dimethylcarbamoyl)amino]-2-methylpiperidin-1-yl]-3-({4-[(4-methylpiperazin-1-yl)methyl]phenyl}amino)pyridine-2-carboxamide], the IC50 on BTK-WT is 100 to 1000 nM; on LCK, 1000 to 10000 nM; on ITK, 1000 to 10000 nM; on EGFR, greater than 10000 nM.
With `C[C@@H]1[C@H](NC(=O)c2ccc(C3CC3)cc2)CCCN1c1cnc(C(N)=O)c(Nc2ccc(N3CCC(F)(F)CC3)cc2)n1` [Example D-96, 5-[(2R,3R)-3-(4-cyclopropylbenzamido)-2-methylpiperidin-1-yl]-3-{[4-(4,4-difluoropiperidin-1-yl)phenyl]amino}pyrazine-2-carboxamide], the IC50 is 10 to 100 nM at BTK-WT, greater than 10000 nM on LCK, greater than 10000 nM against ITK and greater than 10000 nM on EGFR.
With `CC(C)N1CCN(c2ccc(Nc3nc(N4CCC[C@@H](NC(=O)c5ccc(C6CC6)cc5F)[C@H]4C)cnc3C(N)=O)cc2)CC1` [Example D-7, 5-[(2R,3R)-3-(4-cyclopropyl-2-fluorobenzamido)-2-methylpiperidin-1-yl]-3-({4-[4-(propan-2-yl)piperazin-1-yl]phenyl}amino)pyrazine-2-carboxamide], the half-inhibitory concentration (IC50) at BTK-WT was no more than 10 nM; on LCK it was 10 to 100 nM; at ITK, 10 to 100 nM; at EGFR it was 100 to 1000 nM.
With `Cc1cc(Nc2nc(N3CCC[C@@H](NC(=O)c4ccc(C(C)(C)O)cc4)C3)cnc2C(N)=O)sn1` [Example D-158, 5-[(3R)-3-[4-(2-hydroxypropan-2-yl)benzamido]piperidin-1-yl]-3-[(3-methyl-1,2-thiazol-5-yl)amino]pyrazine-2-carboxamide], the half-maximal inhibitory concentration (IC50) was no more than 10 nM on BTK-WT, 100 to 1000 nM at LCK, 100 to 1000 nM at ITK and 1000 to 10000 nM at EGFR.
Take `C[C@@H]1[C@H](NC(=O)c2ccc(C3CC3)cc2F)CCCN1c1cnc(C(N)=O)c(Nc2ccc(CN3CCN(C)CC3)cn2)n1` [Example D-132, 5-[(2R,3R)-3-(4-cyclopropyl-2-fluorobenzamido)-2-methylpiperidin-1-yl]-3-({5-[(4-methylpiperazin-1-yl)methyl]pyridin-2-yl}amino)pyrazine-2-carboxamide]: the IC50 at BTK-WT was 10 to 100 nM; on LCK, 1000 to 10000 nM; on ITK, 1000 to 10000 nM; at EGFR, greater than 10000 nM.
`C[C@@H]1[C@H](NC(=O)c2ccc(C3CC3)cc2)CCCN1c1cnc(C(N)=O)c(Nc2ccc(OC3CCN(C4CCCC4)CC3)cc2)n1` [Example D-101, 3-({4-[(1-cyclopentylpiperidin-4-yl)oxy]phenyl}amino)-5-[(2R,3R)-3-(4-cyclopropylbenzamido)-2-methylpiperidin-1-yl]pyrazine-2-carboxamide]: the IC50 on BTK-WT is no more than 10 nM; at LCK, 10 to 100 nM; on ITK, 10 to 100 nM; against EGFR it was 100 to 1000 nM.
In the case of `CC(C)n1cc(Nc2nc(N3CCC[C@@H](NC(=O)c4ccc(C5CC5)cc4F)[C@H]3C)cnc2C(N)=O)cn1` [Example D-123, 5-[(2R,3R)-3-(4-cyclopropyl-2-fluorobenzamido)-2-methylpiperidin-1-yl]-3-{[1-(propan-2-yl)-1H-pyrazol-4-yl]amino}pyrazine-2-carboxamide], the IC50 on BTK-WT was no more than 10 nM; on LCK, 100 to 1000 nM; on ITK, 100 to 1000 nM; at EGFR, 1000 to 10000 nM.
`C[C@@H]1[C@H](NC(=O)c2ccc(C3CC3)cc2F)CCCN1c1cnc(C(N)=O)c(Nc2ccc(N3CCN(C)CC3)cc2)c1` [Example D-126, 5-[(2R,3R)-3-(4-cyclopropyl-2-fluorobenzamido)-2-methylpiperidin-1-yl]-3-{[4-(4-methylpiperazin-1-yl)phenyl]amino}pyridine-2-carboxamide]: the IC50 on BTK-WT was 10 to 100 nM; at LCK, 100 to 1000 nM; against ITK, 1000 to 10000 nM; at EGFR it was greater than 10000 nM.
The matching figures for `CN1CCC(n2cc(Nc3nc(N4CCC[C@@H](n5ccc6cc(C7CC7)ccc6c5=O)C4)cnc3C(N)=O)cn2)CC1` [Example D-141, 5-[(3R)-3-(6-cyclopropyl-1-oxo-1,2-dihydroisoquinolin-2-yl)piperidin-1-yl]-3-{[1-(1-methylpiperidin-4-yl)-1H-pyrazol-4-yl]amino}pyrazine-2-carboxamide]: no more than 10 nM, 100 to 1000 nM, 100 to 1000 nM and 1000 to 10000 nM.
